Patent publication US10017501B2, “Benzimidazole derivatives as bromodomain inhibitors” (Gilead Sciences, Inc., priority 2013, dated 2018)
pEC50: −log10 of the molar value. Like-named read-outs stand apart in the source and are kept apart here.

How the values were obtained:
MM.1S cells = experiment: MM.1S viability assay (CellTiter Glo); type: cell-based; conditions: 72 hr, read-out: MM.1S Cell viability (EC50)
Method: (§1) c-Myc Down Regulation and MM.1S Viability Assays:
For cell viability in the MM.1S cell line, cells were seeded onto 384-tissue culture treated plates (Greiner) at a density of 60K cells/well containing titrations of small molecule inhibitors or DMSO (0.2%). After 72 hr incubation cells were analyzed for cell viability by addition of CellTiter Glo (Promega) to the assay plates. After 15 min incubation at room temperature the signal from the viable cells was analyzed on an Envision plate reader (Perkin Elmer). EC50 values were calculated from the fit of the dose-response curves to a four-parameter equation. All EC50 values represent geometric mean values of a minimum of four determinations. These assays generally produced results within 3-fold of the reported mean.

[1] = tested on: c-Myc produced in MM.1S cells; experiment: c-Myc down regulation assay (MSD); type: cell-based; conditions: 24 hrs
Method: as §1
An enzyme linked immunosorbent assay using the Meso Scale Diagnostic (MSD) technology was used to detect levels of c-Myc produced in MM.1S cells (ATCC). MM.1S cells were cultured in RPMI-1640 media (Corning), supplemented with 10% FBS (Hyclone), 1% penicillin-streptomycin (Cellgro), 2-mercaptoethanol (Gibco) and seeded onto 384-tissue culture treated filter binding plates (Millipore) at a density of 40K cells/well containing titrations of small molecule inhibitors or DMSO (0.4%) in a volume of […] of media. After an incubation time of 24 hrs, cells were lysed (1× lysis buffer (Thermo) supplemented with protease and phosophatase inhibitor cocktail (Thermo)) and the plates centrifuged (1000 rpm, 1 min) to capture c-Myc on MSD plates coated with a monoclonal c-Myc antibody (Origene). Assay wells were washed (3× Invitrogen wash buffer) and probed with a polyclonal c-Myc antibody (Abcam) and MSD detection antibody solution in order to detect levels of c-Myc on the MSD platform. c-Myc capture was reported in pg/ml based on a standard curve using recombinant c-Myc protein (Prosci). EC50 values were calculated from the fit of the dose-response curves to a four-parameter equation. All EC50 values represent geometric mean values of a minimum of four determinations. These assays generally produced results within 3-fold of the reported mean.

MT-4 cells = experiment: MT-4 proliferation assay; type: cell-based, human; conditions: for pEC50: Table 2, 5 days, Cell Titer Glo, read-out: MT4 Assay (EC50)
Method: MT-4 Proliferation Assay:
Compounds were tested in a standardized high-throughput 384-well assay format. Each compound was serially diluted 3-fold in 100% DMSO in polypropylene 384-well plates using a Biomek FX Workstation, and 0.4 μL compound added to an assay plate containing 40 μL RPMI media. Compounds were arranged in a horizontal pattern, with 10 concentrations per compound, and 8 compounds added per plate. Due to low DMSO tolerability, the final DMSO concentration never exceeded 0.5% (v/v). Each assay plate contained 10 μM Puromycin and 0.5% DMSO in RPMI-1640 as positive and negative controls respectively. MT-4 cells (HTLV-1 transformed, human T lymphoblastoid cells, NIH Aids Reagent program) were added in volumes of 35 μL per well and 2,000 cells per well using a Biotek uFlow Workstation (Biotek, Winooski, Vt.), and the plates subsequently incubated for 5 days at 37° C. in an incubator set at 5% CO2 and 90% humidity.
After 5 days, 22 μL Cell Titer Glo (Promega) was added to the assay plates with a Biotek uFlow Workstation. Plates were subsequently placed on a Perkin Elmer Envision Plate Reader for 5 minutes before the luminescence signal was read.

Compound | pEC50 (MM.1S cells; Homo sapiens, MM1.S) | pEC50 ([1]; Homo sapiens, MM1.S) | pEC50 (MT-4 cells; Homo sapiens, MT4, 120 h) | pEC50 (MM.1S cells) | pEC50 [1] | pEC50 (MT-4 cells) | EC50 (MT-4 cells; Homo sapiens, MT4, 120 h, read-out: MT4 Assay (EC50, nM)) [nM]
Cc1noc(C)c1-c1cc(C(O)(c2ncccn2)c2ccc(F)cc2F)c2nc(C3CC3)[nH]c2c1 (stereo not drawn) [Compound 1020-257, (2-Cyclopropyl-6-(3,5-dimethylisoxazol-4-yl)-1H-benzo[d]imidazol-4-yl)(2,4-difluorophenyl)(pyrimidin-2-yl)methanol] | 7.55 | 7.25 | 7.85 |  |  |  | 
Cc1noc(C)c1-c1cc(C(O)(c2cccnn2)C2CCCO2)c2nc(C3CC3)[nH]c2c1 (single isomer, unassigned) [Compound 1020-289, (2-cyclopropyl-6-(3,5-dimethylisoxazol-4-yl)-1H-benzo[d]imidazol-4-yl)(pyridazin-3-yl)(tetrahydrofuran-2-yl)methanol] |  |  |  | 7.75 | 8.24 | 8.38 | 
Cc1noc(C)c1-c1cc(C(O)(c2ccccc2)c2ccccn2)c2nc(C3CC3)[nH]c2c1 (stereo not drawn) [Compound 1020-113, (2-cyclopropyl-6-(3,5-dimethylisoxazol-4-yl)-1H-benzo[d]imidazol-4-yl)(phenyl)(pyridin-2-yl)methanol] | 6.77 | 7.20 | 7.70 |  |  |  | 
Cc1cccc(C(O)(c2cc(-c3c(C)noc3C)cc3[nH]c(C4CC4)nc23)C2CCCO2)n1 (racemic) [Compound 1020-114, (2-cyclopropyl-6-(3,5-dimethylisoxazol-4-yl)-1H-benzo[d]imidazol-4-yl)(6-methylpyridin-2-yl)(tetrahydrofuran-2-yl)methanol] | 7.67 | 8.32 |  |  |  |  | 2.5
Cc1noc(C)c1-c1cc(C(O)(c2ccccn2)c2ccccn2)c2nc(C3CC3)[nH]c2c1F [Compound 1020-224, (2-cyclopropyl-6-(3,5-dimethylisoxazol-4-yl)-7-fluoro-1H-benzo[d]imidazol-4-yl)di(pyridin-2-yl)methanol] | 7.08 | 6.98 | 7.69 |  |  |  | 
Cc1noc(C)c1-c1cc(C(O)(c2nccs2)c2nccs2)c2nc(C3CC3)[nH]c2c1 [Compound 1020-103, (2-cyclopropyl-6-(3,5-dimethylisoxazol-4-yl)-1H-benzo[d]imidazol-4-yl)di(thiazol-2-yl)methanol] | 7.14 | 7.43 | 8.00 |  |  |  | 
Cc1noc(C)c1-c1cc(C(O)(c2ccccn2)c2ncccn2)c2nc(C3CC3)[nH]c2c1 (single isomer, unassigned) [Compound 1020-239, (2-cyclopropyl-6-(3,5-dimethylisoxazol-4-yl)-1H-benzo[d]imidazol-4-yl)(pyridin-2-yl)(pyrimidin-2-yl)methanol] | 7.32 | 7.48 | 7.85 |  |  |  | 
Cc1noc(C)c1-c1cc(C(O)(c2ccccc2)c2cccnc2)c2nc(C3CC3)[nH]c2c1 (stereo not drawn) [Compound 1020-112, (2-cyclopropyl-6-(3,5-dimethylisoxazol-4-yl)-1H-benzo[d]imidazol-4-yl)(phenyl)(pyridin-3-yl)methanol] | 6.84 | 7.25 | 7.74 |  |  |  | 
Cc1noc(C)c1-c1cc(C(O)(c2cccnn2)C2CCC(C)(C)O2)c2nc(C3CC3)[nH]c2c1 (single isomer, unassigned) [Compound 1020-298, (2-cyclopropyl-6-(3,5-dimethylisoxazol-4-yl)-1H-benzo[d]imidazol-4-yl)(5,5-dimethyltetrahydrofuran-2-yl)(pyridazin-3-yl)methanol] | 7.77 | 7.82 | 8.25 |  |  |  | 
Cc1noc(C)c1-c1cc(C(O)(c2ccccn2)c2ccccn2)c2nc(C3CC3)[nH]c2c1 [Compound 1020-104, (2-cyclopropyl-6-(3,5-dimethylisoxazol-4-yl)-1H-benzo[d]imidazol-4-yl)di(pyridin-2-yl)methanol] | 7.26 | 7.29 | 7.90 |  |  |  | 
